# Legend:
# Test in all cases: relative viability (nuclei count vs DMSO), 5 days (fraction); higher = more cells survive
# XMD14-99 + Tozasertib = compound: CN1CCN(CC1)C2=CC(=C(C=C2)NC3=NC(=C(S3)C(=O)C4=C(C=CC=C4Cl)Cl)N)OC [XMD14-99] + Cc1cc(Nc2cc(N3CCN(C)CC3)nc(Sc3ccc(NC(=O)C4CC4)cc3)n2)n[nH]1 [Tozasertib] (partner 0.1 µM)
# Method in brief: (§1)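 A single step with final 0.05% Triton X-100, 1% formaldehyde and 1 ug/ml Hoechst fixed the cells and stained nuclei 5 days after treatment. Lung cancer cell lines in 1536-well plates had been treated by pin tool the day after seeding with one drug alone or a fixed anchor-drug dose plus five library-drug doses (not always all listed) in √10 steps, and nuclei were counted on 4× images. Relative viability is the ratio of nuclei in treated wells to nuclei in vehicle wells, taken as the median of duplicate plates.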
# AZD1208 + Pemetrexed = compound: N[C@@H]1CCCN(c2c(/C=C3\SC(=O)NC3=O)cccc2-c2ccccc2)C1 [AZD1208] + Nc1nc2[nH]cc(CCc3ccc(C(=O)N[C@@H](CCC(=O)O)C(=O)O)cc3)c2c(=O)[nH]1 [Pemetrexed] (partner 0.2 µM)
# Method in brief: as §1
# AZD1208 + Crizotinib = compound: N[C@@H]1CCCN(c2c(/C=C3\SC(=O)NC3=O)cccc2-c2ccccc2)C1 [AZD1208] + C[C@@H](Oc1cc(-c2cnn(C3CCNCC3)c2)cnc1N)c1c(Cl)ccc(F)c1Cl [Crizotinib] (partner 1 µM)
# Method in brief: as §1
# AZD1208 + Navitoclax = compound: N[C@@H]1CCCN(c2c(/C=C3\SC(=O)NC3=O)cccc2-c2ccccc2)C1 [AZD1208] + CC1(C)CCC(c2ccc(Cl)cc2)=C(CN2CCN(c3ccc(C(=O)NS(=O)(=O)c4ccc(N[C@H](CCN5CCOCC5)CSc5ccccc5)c(S(=O)(=O)C(F)(F)F)c4)cc3)CC2)C1 [Navitoclax] (partner 0.5 µM)
# Method in brief: as §1
Cell Line,relative viability (XMD14-99 + Tozasertib; first compound 0.08 µM),relative viability (XMD14-99 + Tozasertib; first compound 0.8 µM),relative viability (XMD14-99 + Tozasertib; first compound 2.53 µM),relative viability (XMD14-99 + Tozasertib; first compound 8 µM),relative viability (AZD1208 + Pemetrexed; first compound 0.08 µM),relative viability (AZD1208 + Pemetrexed; first compound 0.253 µM),relative viability (AZD1208 + Pemetrexed; first compound 0.8 µM),relative viability (AZD1208 + Pemetrexed; first compound 2.53 µM),relative viability (AZD1208 + Pemetrexed; first compound 8 µM),relative viability (AZD1208 + Crizotinib; first compound 0.08 µM),relative viability (AZD1208 + Crizotinib; first compound 0.253 µM),relative viability (AZD1208 + Crizotinib; first compound 0.8 µM),relative viability (AZD1208 + Crizotinib; first compound 2.53 µM),relative viability (AZD1208 + Crizotinib; first compound 8 µM),relative viability (AZD1208 + Navitoclax; first compound 0.08 µM),relative viability (AZD1208 + Navitoclax; first compound 0.253 µM),relative viability (AZD1208 + Navitoclax; first compound 0.8 µM),relative viability (AZD1208 + Navitoclax; first compound 2.53 µM),relative viability (AZD1208 + Navitoclax; first compound 8 µM)
HCC-44,1,0.921,0.929,0.605,0.636,0.592,0.62,0.688,0.639,0.828,0.905,0.788,0.879,0.82,0.91,1.07,0.94,1.04,0.899
HCC-827,0.393,0.394,0.342,0.404,0.278,0.26,0.308,0.269,0.265,0.93,0.992,0.931,0.915,0.936,1.05,1.11,0.984,1.07,0.983
NCI-H1623,0.429,0.429,0.38,0.394,,,,,,,,,,,,,,,
NCI-H2405,0.758,0.713,0.701,0.501,1.01,1,1.02,1.02,0.95,0.831,0.86,0.782,0.81,0.838,0.78,0.792,0.84,0.791,0.789
PC-3 [JPC-3],0.889,0.828,0.789,0.705,1.22,1.04,1.09,1.18,1.2,1.01,0.996,1.04,1.05,0.982,0.859,0.953,0.792,0.809,0.828
NCI-H1651,0.767,0.645,0.657,0.556,0.626,0.57,,0.569,0.555,0.899,0.918,0.83,0.835,0.81,0.879,0.929,0.858,0.887,0.774
HARA,0.122,0.0974,0.258,0.0954,0.251,0.206,0.292,0.282,0.227,0.938,1.02,1.02,1.02,0.943,1.13,1.16,1.2,1.03,1.15
NCI-H1650,0.351,0.422,0.319,0.258,0.4,0.421,0.368,0.401,0.478,0.954,0.972,1.04,0.921,0.71,1.07,1.15,1.04,1.02,1.19
NCI-H1395,0.689,0.79,0.537,0.651,0.937,0.859,0.699,0.787,0.673,,,,,,1.05,1.23,0.956,1.02,0.872
